From patent US20050154046A1, “Methods of treating an inflammatory-related disease” (priority 2004, published 2005) come the findings set out here.

The subject of experiment [1] is scale epithelial cells of mouse-tails. The experiment is described as follows: Mouse-tail model: granular layer formation in scale epithelial cells. The experiment is classed as in vivo, Kunming mice. The following applies: 1.0 mg/kg i.p. once every 2 days, 13 days. The text has this:
(§1) Materials: Meisoindigo was synthesized, purified and its structure characterized by Natrogen Therapeutics, Inc. The purity of the compound was 98.5% as described in the Examples above. A suspension of Meisoindigo was freshly prepared in 0.5% sodium methylcellulose and given orally for the animal tests described below. Other chemicals used in the following experiments were purchased from Sigma.
(§2) Pathogen-free female Kunming mice at 12 weeks of age with body weights from 22 to 25 grams were housed 5 per cage, and given, ad libitum, fresh tap water and commercial rodent pellets. Animal rooms were controlled at 24±2° C. with a relative humidity of 60±5% and a 12 hour light/dark cycle (07:00-19:00 hr).
Effect of Meisoindigo on Epidermal Cell Differentiation in Mouse Tails: Sixty female Kunming mice were randomly divided into 5 groups, 20 in one control group, and 10 in 4 drug-tested groups. Meisoindigo was freshly prepared as a suspension in 0.5% of sodium methylcellulose. The drug was given orally at doses of 50, 100, and 200 mg/kg, respectively, once a day for 13 days. Methotrexate (MTX) was used as a positive control at a dose of 1 mg/kg, i.p. once every 2 days, for the same period of time. The same volume and vehicle for Meisoindigo suspension were used as a negative control. […] Slides were prepared for histological examination as originally described by Bosman et. al., (106). The slides were prepared by cutting the tails into longitudinal sections, and Hematoxylin and Eosin (H&E) stained. The slides were then examined with a light microscope to evaluate the degree of orthokeratosis (OK) and epidermal hyperplasia. The former was done by measuring the horizontal length of the fully developed granular layer stratum granulosum within an individual scale in relation to its total length. Drug activity was defined by the increase of the positive scale cells containing granular layer stratum granulosum between two folliculus pili.

For a further experiment, the system named is mouse vaginal epithelium. Description: Mitotic index in estrogen-stimulated vaginal epithelium of female mice. The experiment is classed as in vivo, Kunming mice. The following applies: 1.0 mg/kg i.p. once a day, 3 days; percent of mitotic cells.
From the text: as §1, §2
Anti-mitotic Effects of Meisoindigo on Mouse Vaginal Epithelium: Sixty Kunming female mice were randomly divided into 5 groups, 20 in one control group, and 10 in 4 drug-tested groups. All mice were given estrogen at a dose of 0.2 mg/animal for 3 days to allow vaginal epithelial cells to develop under the stimulation of estrogen hormone. Meisoindigo was freshly prepared as a suspension in 0.5% of sodium methylcellulose. The drug was given orally at doses of 50, 100, and 200 mg/kg, respectively, once a day for 3 days. Methotrexate (MTX) was used as a positive control at a dose of 1 mg/kg, i.p. once a day for the same period of time. […] The mitotic index (percent of mitotic cells) was calculated.

Another experiment addresses T1, CDK2 (Homo sapiens, UniProt P24941).
T1 construct: endogenous in cells; host or cells: THP-1
Description: Cyclin dependent kinase activity in THP-1 cells (immunoprecipitation, histone H1 phosphorylation). Particulars: 24 h. The experiment is classed as cell-based. As for the experimental part:
(§3) 2) Effects of Meisoindigo and/or NATURA on activity of cyclin dependent kinases (CDK) in THP-1 cells (99): THP-1 cells grown exponentially were exposed to […] of Meisoindigo or NATURA for 24 hr, respectively.
(§4) The cells were harvested, washed, and total proteins extracted as described previously (100). One hundred μg of the proteins were immuno-precipitated using antibodies against either cdk2, cdk4/6 or cyclin D1 overnight at 4° C. in the presence of a cocktail of protease inhibitors. The immuno-precipitates were washed 4 times with protein extraction buffer and once with kinase assay buffer, and reacted with […] histone H1 in the presence of [γ-^32P]-ATP (10 μCi/10 μM). The phosphorylated histone H1 (represent cdk activity) was measured by scintillation counting or by SDS-polyacrylaimde gel electrophoresis (101, 102).

A further experiment relates to cyclin D1. Description: Cyclin D1 levels in THP-1 cells. The experiment is classed as cell-based, human. Particulars: 31.25 and 62.5 nM, 24 h; data not shown.
The subject of the next experiment is IL-10. The experiment is described as follows: IL-10 secretion (ELISA) in THP-1 cells. The experiment is classed as cell-based, human. On the technique in general: An ELISA detects its analyte on a solid surface through an enzyme-linked reagent.
Another experiment deals with IL-6. Description: IL-6 secretion (ELISA) in LPS-stimulated THP-1 cells. Particulars: as low as 31.25 nM (31.25 and 62.5 nM in FIG. 6), 24 h. The experiment is classed as cell-based, human.
In experiment [2] the target is T2, glycogen synthase kinase-3β (GSK-3β) (Homo sapiens, UniProt P49841).
T2 construct: endogenous in cells
The experiment is described as follows: Effect on glycogen synthase kinase-3β in cells. The experiment is classed as cell-based. The following applies: as high as 50 μM; data not shown.

For a further experiment, the system named is IL-1β. The experiment is described as follows: IL-1β secretion (ELISA) in LPS-stimulated THP-1 cells. The experiment is classed as cell-based, human. Particulars: as low as 31.25 nM (31.25 and 62.5 nM in FIG. 6), 24 h.
In another experiment the test system is cdk4/6. The experiment is described as follows: Cyclin dependent kinase activity in THP-1 cells (immunoprecipitation, histone H1 phosphorylation). The experiment is classed as cell-based, human. The following applies: 31.25 and 62.5 nM, 24 h. Here is the method:
as §3, §4

Each structure is given as a SMILES string. Entries after “also recorded” stand apart in the source; their conditions may differ.

T2 sequence (P49841 whole entry): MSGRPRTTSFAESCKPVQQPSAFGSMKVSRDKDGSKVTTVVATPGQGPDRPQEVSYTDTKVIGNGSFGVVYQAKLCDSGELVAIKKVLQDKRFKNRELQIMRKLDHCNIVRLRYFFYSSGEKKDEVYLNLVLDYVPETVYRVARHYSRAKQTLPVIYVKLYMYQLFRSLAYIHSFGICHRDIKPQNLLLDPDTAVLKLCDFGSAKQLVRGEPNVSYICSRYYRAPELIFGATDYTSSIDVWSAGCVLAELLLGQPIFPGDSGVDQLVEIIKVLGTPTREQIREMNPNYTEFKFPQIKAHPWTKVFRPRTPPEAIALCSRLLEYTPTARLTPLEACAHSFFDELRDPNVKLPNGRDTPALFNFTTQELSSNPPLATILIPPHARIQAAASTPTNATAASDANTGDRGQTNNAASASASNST
From the text for IL-10: (§5) Viability of cells was examined under microscope after trypan blue staining.
Viability of cells was examined by trypan blue exception assay.
Description for IL-1β: It was prepared in a solution of dimethyl sulfoxide (DMSO), and stored under −20° C. for the experiments in vitro. Human monocytic cell line, THP-1 (90), was purchased from ATCC. The cells were maintained according to the supplier's instructions. Approximately 1×10^5 cells/ml were cultured at 37° C., 5% CO2 for 24 hours in Modified RPMI-1640 Medium (Invitrogen) supplemented with 10% FBS.
Viability of cells was examined under microscope after trypan blue staining. Protein levels of IL-1β secreted into the culture media by the cells were then measured by ELISA and calculated from its standard curve using an assay Kit from R&D Systems according to instructions provided by the supplier.
Statistical Analysis: All data were expressed as a mean±SD. Statistical significance of any difference between the control (LPS) and experimental groups was determined by the Student's t-test. P values between the 2 groups must be at least smaller than 0.05 to be considered statistically significant.
(§6) 1) Effects of Meisoindigo and NATURA on the expression/secretion of cytokines IL-1β, IL-6, IL-10: The human monocytic THP-1 cells grown exponentially were stimulated with or without 1 μM of lipopolysaccharide (LPS, Sigma), and exposed for 24 hours to different concentrations of Meisoindigo and NATURA (from 31.25 nM and 62.5 nM), respectively. Viability of cells was examined by trypan blue exception assay.
Description for IL-6: as §5
Standard IL-6 protein was used to establish a standard curve for the calculation of IL-6 in the medium secreted by the cells (LPS-stimulated or non-stimulated cells in the presence or absence of Meisoindigo).
as §6

Consider `CN(Cc1cnc2nc(N)nc(N)c2n1)c1ccc(C(=O)N[C@@H](CCC(=O)O)C(=O)O)cc1` [MTX, Methotrexate, reference compound], for which the “Granulous Scales (X ± SD)” value in experiment [1] is reported as 17.22 ± 4.92. The “Mitotic Index (X ± SD)” value with mouse vaginal epithelium stood at 14.76±4.29.

With `CC(=O)OC1COC(N2C(=O)/C(=C3/C(=O)Nc4ccccc43)c3ccccc32)C(OC(C)=O)C1OC(C)=O` (centres unmarked) [NATURA], the “partial inhibition of CDK activity” value at CDK2 (1.5 μM, FIG. 6B) came to 23%. Besides, the “inhibition of CDK2 activity” value at CDK2 (31.25 and 62.50 nM) is recorded as “failed to inhibit; also recorded: no inhibitory effect”. Further, the “effect on levels of cyclin D1” value in the experiment on cyclin D1 is “failed to inhibit”. In addition, in the experiment on IL-10 (31.25 and 62.5 nM, 24 h), the “effect on IL-10 production” value was “promoted production”. For the same compound, the “elevation of LPS-suppressed IL-10” value with IL-10 (similar concentrations (as low as 31.25 nM), FIG. 6A) is ~2 fold. For the same compound, the “effect on IL-6 production/secretion” value in the experiment on IL-6 is “significantly inhibit”. For the same compound, the “activity on GSK-3β” value in experiment [2] is “no activity was observed”. Besides, the “effect on IL-1β production” value in the experiment with IL-1β is listed as “significantly inhibit”. In the experiment on cdk4/6, the “inhibition of cyclin dependent kinase 4 and 6 activity” value is on record as “failed to inhibit”.
